The record followed here is ChEMBL document CHEMBL3991601, “The target landscape of clinical kinase drugs” (Science, 2017).

Assay [1] deals with T1, Serine/threonine-protein kinase Chk1 (Homo sapiens, UniProt O14757).
T1 sequence (O14757 whole entry): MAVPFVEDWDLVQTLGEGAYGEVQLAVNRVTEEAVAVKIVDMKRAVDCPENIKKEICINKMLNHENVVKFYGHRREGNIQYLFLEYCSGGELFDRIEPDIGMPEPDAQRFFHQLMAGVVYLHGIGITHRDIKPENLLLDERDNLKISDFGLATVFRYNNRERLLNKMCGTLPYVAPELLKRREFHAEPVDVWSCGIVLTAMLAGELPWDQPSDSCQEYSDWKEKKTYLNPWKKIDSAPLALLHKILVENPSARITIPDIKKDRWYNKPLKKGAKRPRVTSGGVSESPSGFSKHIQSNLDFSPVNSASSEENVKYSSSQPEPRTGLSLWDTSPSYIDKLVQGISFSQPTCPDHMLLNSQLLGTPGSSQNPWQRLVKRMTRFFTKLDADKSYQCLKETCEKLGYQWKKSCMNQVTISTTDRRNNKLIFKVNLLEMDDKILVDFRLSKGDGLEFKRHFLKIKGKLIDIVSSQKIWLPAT

For assay [2], the target named is Casein kinase I isoform gamma-1 (Homo sapiens, UniProt Q9HCP0).
In assay [3] the target is Macrophage-stimulating protein receptor (Homo sapiens, UniProt Q04912).
For assay [4], the target named is T2, Dynamin-like GTPase OPA1, mitochondrial (Homo sapiens, UniProt O60313).
T2 sequence (O60313 whole entry): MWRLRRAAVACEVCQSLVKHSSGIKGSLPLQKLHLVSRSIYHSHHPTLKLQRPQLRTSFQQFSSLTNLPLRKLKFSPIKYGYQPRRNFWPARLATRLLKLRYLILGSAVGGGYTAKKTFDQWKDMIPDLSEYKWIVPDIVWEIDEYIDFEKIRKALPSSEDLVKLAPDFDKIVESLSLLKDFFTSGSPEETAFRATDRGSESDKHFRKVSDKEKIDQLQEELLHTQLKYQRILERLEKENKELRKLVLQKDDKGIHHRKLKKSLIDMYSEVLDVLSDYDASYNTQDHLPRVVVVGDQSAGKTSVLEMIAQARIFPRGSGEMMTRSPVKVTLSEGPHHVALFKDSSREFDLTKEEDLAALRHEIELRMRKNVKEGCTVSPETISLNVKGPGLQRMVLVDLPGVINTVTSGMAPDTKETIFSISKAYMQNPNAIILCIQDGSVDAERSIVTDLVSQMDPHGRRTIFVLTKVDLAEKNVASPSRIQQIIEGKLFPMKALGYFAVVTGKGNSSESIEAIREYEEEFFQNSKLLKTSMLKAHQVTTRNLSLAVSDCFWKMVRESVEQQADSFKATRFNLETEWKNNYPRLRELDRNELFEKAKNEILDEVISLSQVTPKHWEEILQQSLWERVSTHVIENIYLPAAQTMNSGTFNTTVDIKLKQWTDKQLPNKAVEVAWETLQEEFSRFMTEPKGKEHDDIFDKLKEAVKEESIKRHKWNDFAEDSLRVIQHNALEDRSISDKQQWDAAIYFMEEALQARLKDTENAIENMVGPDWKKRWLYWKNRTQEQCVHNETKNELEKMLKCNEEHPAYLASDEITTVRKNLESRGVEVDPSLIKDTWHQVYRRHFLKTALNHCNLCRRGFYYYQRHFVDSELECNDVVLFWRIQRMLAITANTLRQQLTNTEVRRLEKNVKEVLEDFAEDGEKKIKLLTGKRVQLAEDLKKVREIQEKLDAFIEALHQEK

Assay [5] concerns the target T3, Serine/threonine-protein kinase TAO2 (Homo sapiens, UniProt Q9UL54).
T3 sequence (Q9UL54 whole entry): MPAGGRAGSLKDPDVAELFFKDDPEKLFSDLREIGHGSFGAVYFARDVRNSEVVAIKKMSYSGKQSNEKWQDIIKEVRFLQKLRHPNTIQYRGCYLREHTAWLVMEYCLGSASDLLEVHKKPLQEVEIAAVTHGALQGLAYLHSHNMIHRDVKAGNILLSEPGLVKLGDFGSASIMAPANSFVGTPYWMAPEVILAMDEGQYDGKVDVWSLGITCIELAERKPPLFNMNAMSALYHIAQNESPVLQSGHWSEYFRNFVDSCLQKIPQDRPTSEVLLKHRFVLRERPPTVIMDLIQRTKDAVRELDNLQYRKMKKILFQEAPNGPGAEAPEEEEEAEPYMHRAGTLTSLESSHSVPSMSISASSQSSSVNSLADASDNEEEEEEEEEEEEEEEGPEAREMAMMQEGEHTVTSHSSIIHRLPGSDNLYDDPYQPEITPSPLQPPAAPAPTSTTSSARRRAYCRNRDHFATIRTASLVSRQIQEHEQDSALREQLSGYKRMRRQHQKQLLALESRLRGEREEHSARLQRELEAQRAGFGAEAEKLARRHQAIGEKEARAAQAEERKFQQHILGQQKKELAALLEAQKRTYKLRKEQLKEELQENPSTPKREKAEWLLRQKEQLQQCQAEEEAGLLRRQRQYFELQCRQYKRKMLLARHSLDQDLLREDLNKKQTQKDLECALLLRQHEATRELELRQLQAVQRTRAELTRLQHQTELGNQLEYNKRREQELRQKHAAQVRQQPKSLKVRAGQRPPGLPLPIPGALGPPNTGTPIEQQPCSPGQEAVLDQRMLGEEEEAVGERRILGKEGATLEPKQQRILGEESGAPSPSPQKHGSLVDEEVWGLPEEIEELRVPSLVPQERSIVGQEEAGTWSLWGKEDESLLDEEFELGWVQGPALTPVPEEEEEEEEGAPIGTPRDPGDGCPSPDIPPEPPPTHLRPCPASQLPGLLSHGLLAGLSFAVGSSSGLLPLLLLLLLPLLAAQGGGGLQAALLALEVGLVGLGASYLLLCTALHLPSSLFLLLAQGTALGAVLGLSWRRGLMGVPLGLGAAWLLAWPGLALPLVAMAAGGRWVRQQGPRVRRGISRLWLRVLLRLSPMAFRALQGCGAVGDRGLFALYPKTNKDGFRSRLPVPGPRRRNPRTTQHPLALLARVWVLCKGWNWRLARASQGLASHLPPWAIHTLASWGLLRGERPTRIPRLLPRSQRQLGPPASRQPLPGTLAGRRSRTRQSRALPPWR

Calls of active or inactive are those of the source. Cut-off read from the data, not from the text of the source, for most assays here: actives have a measured Kd and inactives only a lower limit. A value given as a limit tells only on which side of the number the result lay.
Note: in the data inactive means no Kd found up to 30 µM.

Chain of Macrophage-stimulating protein receptor (Q04912 25-304 limits assumed): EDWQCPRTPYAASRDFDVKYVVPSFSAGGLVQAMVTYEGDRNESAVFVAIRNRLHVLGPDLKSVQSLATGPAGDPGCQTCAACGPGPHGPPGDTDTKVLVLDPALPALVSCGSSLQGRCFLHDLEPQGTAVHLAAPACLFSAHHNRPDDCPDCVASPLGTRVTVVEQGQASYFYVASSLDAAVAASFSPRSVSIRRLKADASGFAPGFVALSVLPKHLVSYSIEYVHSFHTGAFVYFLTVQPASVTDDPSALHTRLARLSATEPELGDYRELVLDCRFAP
Chain of Macrophage-stimulating protein receptor (Q04912 310-1400 limits assumed): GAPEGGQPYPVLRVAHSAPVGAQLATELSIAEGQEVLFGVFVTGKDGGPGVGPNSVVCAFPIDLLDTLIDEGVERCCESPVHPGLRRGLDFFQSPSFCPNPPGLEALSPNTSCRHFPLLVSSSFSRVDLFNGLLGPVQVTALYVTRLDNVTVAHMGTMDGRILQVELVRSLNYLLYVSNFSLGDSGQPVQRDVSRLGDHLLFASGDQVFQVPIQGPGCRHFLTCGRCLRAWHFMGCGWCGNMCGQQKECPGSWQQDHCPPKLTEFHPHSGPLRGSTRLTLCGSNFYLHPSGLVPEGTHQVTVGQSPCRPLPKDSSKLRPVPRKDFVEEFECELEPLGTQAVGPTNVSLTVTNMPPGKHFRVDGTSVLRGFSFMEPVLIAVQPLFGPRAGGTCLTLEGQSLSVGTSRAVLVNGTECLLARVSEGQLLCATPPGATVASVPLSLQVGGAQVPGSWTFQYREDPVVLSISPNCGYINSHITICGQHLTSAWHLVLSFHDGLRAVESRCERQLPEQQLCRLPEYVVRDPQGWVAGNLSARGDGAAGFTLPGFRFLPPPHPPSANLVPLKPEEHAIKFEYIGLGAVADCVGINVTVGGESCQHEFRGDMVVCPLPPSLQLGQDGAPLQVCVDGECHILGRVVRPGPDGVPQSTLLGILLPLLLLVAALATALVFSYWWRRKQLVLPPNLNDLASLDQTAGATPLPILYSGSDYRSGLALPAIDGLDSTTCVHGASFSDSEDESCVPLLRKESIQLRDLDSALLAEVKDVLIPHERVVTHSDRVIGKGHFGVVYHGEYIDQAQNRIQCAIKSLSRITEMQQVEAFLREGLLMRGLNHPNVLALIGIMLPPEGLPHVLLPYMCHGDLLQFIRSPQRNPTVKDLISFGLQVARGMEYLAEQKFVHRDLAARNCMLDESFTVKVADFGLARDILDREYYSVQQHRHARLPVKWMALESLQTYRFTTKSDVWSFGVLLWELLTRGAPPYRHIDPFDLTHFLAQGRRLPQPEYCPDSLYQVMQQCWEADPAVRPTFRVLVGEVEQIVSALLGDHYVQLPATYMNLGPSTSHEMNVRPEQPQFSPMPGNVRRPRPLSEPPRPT
Chain of Casein kinase I isoform gamma-1 (Q9HCP0 whole entry, canonical isoform): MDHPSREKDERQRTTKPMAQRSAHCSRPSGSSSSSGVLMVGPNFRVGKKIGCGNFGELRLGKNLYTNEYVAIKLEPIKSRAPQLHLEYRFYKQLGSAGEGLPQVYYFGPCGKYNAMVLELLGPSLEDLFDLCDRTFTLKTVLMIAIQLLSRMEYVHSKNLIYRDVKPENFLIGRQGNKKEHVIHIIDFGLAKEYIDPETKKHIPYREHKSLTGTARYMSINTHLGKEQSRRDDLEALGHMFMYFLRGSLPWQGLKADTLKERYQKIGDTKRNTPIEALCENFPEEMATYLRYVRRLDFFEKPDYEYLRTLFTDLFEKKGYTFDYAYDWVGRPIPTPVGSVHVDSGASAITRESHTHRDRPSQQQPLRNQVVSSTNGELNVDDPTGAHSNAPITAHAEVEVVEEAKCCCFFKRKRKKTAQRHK

As a reminder, the Kd is the equilibrium constant for the complex coming apart. In the case of `C[C@@H](Oc1cc(C(=O)Nc2ccc(C(=O)N3CCN(C)CC3)cc2)nnc1N)c1c(Cl)ccc(F)c1Cl`, the Kd in assay [1], in assay [2], in assay [3], in assay [4] and in assay [5] was > 30 µM (inactive) each time.
As to `C[C@H]1CNCCCN1S(=O)(=O)c1cccc2cncc(F)c12`, the Kd in assay [1], in assay [2], in assay [3], in assay [4] and in assay [5] was > 30 µM (inactive) throughout.
Regarding `CC(=O)c1cnc2ccc(-c3cc(Cl)c(O)c(Cl)c3)nc2c1N[C@H]1CC[C@H](CN(C)C)CC1`, the Kd is > 30 µM (inactive) in assay [1]; 0.665 µM in assay [2]; 0.311 µM (active) in assay [3]; > 30 µM (inactive) in assay [4]; 0.01 µM in assay [5].
Consider `CCNC(=O)C#Cc1ccc2c(c1)NC(=O)/C2=C(\Nc1ccc(CN(C)C)cc1)c1ccccc1`, for which the Kd in assay [1], in assay [2], in assay [3], in assay [4] and in assay [5] was > 30 µM (inactive) in each case.
Turning to `C=CC(=O)N1CCC[C@H](n2c(=O)n(-c3ccc(Oc4ccccc4)cc3)c3c(N)ncnc32)C1`, the Kd in assay [1], in assay [2], in assay [3], in assay [4] and in assay [5] was > 30 µM (inactive) throughout.
Consider `Cc1nc2cc(-c3nn(C(C)C)c4ncnc(N)c34)ccc2o1`, for which the Kd is > 30 µM (inactive) in assay [1]; > 30 µM (inactive) in assay [2]; > 30 µM (inactive) in assay [3]; > 30 µM (inactive) in assay [4]; 1.73 µM (active) in assay [5].
`COCc1c(-c2ccc(NC(=O)Nc3cc(C(F)(F)F)ccc3F)c(F)c2)c2c(N)ncnn2c1CN1CCOCC1`: the Kd in assay [1], in assay [2], in assay [3], in assay [4] and in assay [5] was > 30 µM (inactive) each time.
With `Nc1ncnc2c1c(-c1cccc(OCc3ccccc3)c1)cn2[C@H]1C[C@@H](CN2CCC2)C1` [AEW-541], the Kd in assay [1], in assay [2], in assay [3], in assay [4] and in assay [5] was > 30 µM (inactive) in each case.
In the case of `COc1cc(Nc2ncc3c(n2)-c2ccc(Cl)cc2C(c2c(F)cccc2OC)=NC3)ccc1C(=O)O` [ALISERTIB], the Kd in assay [4] and in assay [5] was > 30 µM (inactive) each time.
In the case of `Cc1nc(NC(=O)N2CCC[C@H]2C(N)=O)sc1-c1ccnc(C(C)(C)C(F)(F)F)c1` [ALPELISIB], the Kd in assay [1], in assay [2], in assay [3], in assay [4] and in assay [5] was > 30 µM (inactive) in each case.
Regarding `CNC(=O)c1ccccc1Sc1ccc2c(/C=C/c3ccccn3)n[nH]c2c1` [AXITINIB], in assay [4], the Kd is > 30 µM (inactive).
Regarding `NC(=O)Nc1cc(-c2cccc(F)c2)sc1C(=O)N[C@H]1CCCNC1` [AZD-7762], the Kd in assay [2], in assay [3], in assay [4] and in assay [5] was > 30 µM (inactive) in each case.
Take `CC(C)(C)c1nc(-c2cccc(NS(=O)(=O)c3c(F)cccc3F)c2F)c(-c2ccnc(N)n2)s1` [DABRAFENIB]: the Kd in assay [3], in assay [4] and in assay [5] was > 30 µM (inactive) each time.
As to `Cn1cc(C2=C(c3cn(C4CCN(Cc5ccccn5)CC4)c4ccccc34)C(=O)NC2=O)c2ccccc21` [ENZASTAURIN], the Kd in assay [4] is > 30 µM (inactive).
The same measure, in the same setting: the value for `C[C@@H](Oc1cc(-n2cnc3ccc(CN4CCN(C)CC4)cc32)sc1C(N)=O)c1ccccc1C(F)(F)F` [GSK-461364] was > 30 µM (inactive).
On to `CCn1cc(-c2ccnc3[nH]c(-c4cccc(CN(C)C)c4)cc23)c(-c2ccc(NC(=O)N(C)C)cc2)n1` [GSK-1070916], for which the Kd in assay [1], in assay [2], in assay [3] and in assay [4] was > 30 µM (inactive) throughout.
As to `O=C(Nc1cc(C(F)(F)F)cc(C(F)(F)F)c1)c1cc(Cl)ccc1O` [IMD-0354], the Kd in assay [2], in assay [3], in assay [4] and in assay [5] was > 30 µM (inactive) in each case.
`Cc1[nH]c(/C=C2\C(=O)Nc3ccccc32)c(C)c1CCC(=O)O` [ORANTINIB]: the Kd in assay [3], in assay [4] and in assay [5] was > 30 µM (inactive) in each case.
`NC(=O)c1c(OCc2c(F)cc(Br)cc2F)nsc1NC(=O)NCCCCN1CCCC1` [OSI-632]: the Kd in assay [4] and in assay [5] was > 30 µM (inactive) throughout.
As for `CC(=O)NCC(=O)N1[C@@H]2CC[C@H]1c1ccc(Nc3ncc(C(F)(F)F)c(NC4CCC4)n3)cc12` [PF-03814735], the Kd in assay [4] is > 30 µM (inactive); in assay [5] it was 2.05 µM (active).
With `Cc1cnc(NC(=O)Nc2cc(Br)c(C)cc2OC[C@@H]2CNCCO2)cn1` [RABUSERTIB], the Kd in assay [2], in assay [3], in assay [4] and in assay [5] was > 30 µM (inactive) each time.
With `O=C(NOCCO)c1cc(CN2OCCCC2=O)c(F)c(F)c1Nc1ccc(I)cc1F` [RO-4987655], the Kd in assay [4] is > 30 µM (inactive).
In the case of `N#CC[C@H](C1CCCC1)n1cc(-c2ncnc3[nH]ccc23)cn1` [RUXOLITINIB], the Kd in assay [4] is > 30 µM (inactive).
Consider `Cn1cc(-c2cnn3c(N)c(Br)c([C@@H]4CCCNC4)nc23)cn1` [SCH-900776], for which the Kd in assay [2], in assay [3], in assay [4] and in assay [5] was > 30 µM (inactive) each time.
